Target: Alpha-glucosidase MAL12 (Saccharomyces cerevisiae (strain ATCC 204508 / S288c), UniProt P53341)
Assay: α-glucosidase Inhibitory Activity Assay
Conditions: pH 7; 25 °C
Experimental: α-glucosidase (25 μL, 0.2 U/mL), 25 μL of various concentrations of samples, and 175 μL of 50 mM sodium phosphate buffer (pH 7.0) were mixed at room temperaturefor 10 min. The reaction was started by the addition of 25 μL of 2.5 mM p-nitrophenyl-α-d-glucopyranoside. […] Control sample contained 25 μL DMSO in place of test samples.

Sequence of Alpha-glucosidase MAL12 (P53341 whole entry): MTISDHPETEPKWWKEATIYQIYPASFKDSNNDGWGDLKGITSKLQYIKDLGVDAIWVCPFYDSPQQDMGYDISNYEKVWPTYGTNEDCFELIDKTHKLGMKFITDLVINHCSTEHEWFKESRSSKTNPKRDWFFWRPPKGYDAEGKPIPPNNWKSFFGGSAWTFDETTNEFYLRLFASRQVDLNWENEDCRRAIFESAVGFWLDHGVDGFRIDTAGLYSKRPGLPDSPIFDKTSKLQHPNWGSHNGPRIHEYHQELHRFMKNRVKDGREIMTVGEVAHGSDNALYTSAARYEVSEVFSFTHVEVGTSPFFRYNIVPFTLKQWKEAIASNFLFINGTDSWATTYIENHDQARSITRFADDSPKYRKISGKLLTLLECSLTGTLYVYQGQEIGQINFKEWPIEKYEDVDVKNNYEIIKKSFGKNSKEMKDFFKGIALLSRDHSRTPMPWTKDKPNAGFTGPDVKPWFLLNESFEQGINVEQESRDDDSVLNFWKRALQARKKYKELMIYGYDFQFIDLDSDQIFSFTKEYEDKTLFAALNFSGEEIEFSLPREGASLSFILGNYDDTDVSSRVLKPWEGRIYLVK

| SMILES | IC50 [µM] |
| --- | --- |
| COc1ccc(C(=O)O)cc1OC [3,4-dimethoxybenzoic acid] | > 300 |
| COc1ccc(C(=O)OC[C@H]2OC3c4c(cc(O)c(OC)c4O)C(=O)OC3[C@@H](O)[C@@H]2O)cc1OC (stereo not given in full) [11-O-(3',4'-dimethoxybenzoyl)-bergenin (6)] | 24.6 |
| COc1cc(C(=O)OC[C@H]2OC3c4c(cc(O)c(OC)c4O)C(=O)OC3[C@@H](O)[C@@H]2O)ccc1O (stereo not given in full) [11-O-vanilloylbergenin (7)] | 187 |
| COc1cc(C(=O)OC[C@H]2OC3c4c(cc(O)c(OC)c4O)C(=O)OC3[C@@H](O)[C@@H]2O)cc(OC)c1O (stereo not given in full) [11-O-syringylbergenin (9)] | > 300 |
| COc1c(O)cc2c(c1O)C1O[C@H](COC(=O)c3ccc(O)cc3)[C@@H](O)[C@H](O)C1OC2=O (stereo not given in full) [11-O-p-hydroxybenzoylbergenin (3)] | 143 |
| COc1ccc(C(=O)O)cc1 [Anisic acid] | > 300 |
| O=C(O)c1ccc(O)cc1 [4-Hydroxybenzoate, III] | > 300 |
| O=C(O)c1ccc(O)c(O)c1 [Protocatechuic acid (M1)] | > 300 |
| COc1cc(OC)cc(C(=O)OC[C@H]2OC3c4c(cc(O)c(OC)c4O)C(=O)OC3[C@@H](O)[C@@H]2O)c1 (stereo not given in full) [11-O-(3',5'-dimethoxybenzoyl)-bergenin (8)] | > 300 |
| COc1c(O)cc2c(c1O)C1O[C@H](COC(=O)c3ccccc3)[C@@H](O)[C@H](O)C1OC2=O (stereo not given in full) [11-O-benzoylbergenin (2)] | 118 |
| COc1c(O)cc2c(c1O)C1O[C@H](CO)[C@@H](O)[C@H](O)C1OC2=O (stereo not given in full) [Bergenin (1)] | > 300 |
| COc1ccc(C(=O)OC[C@H]2OC3c4c(cc(O)c(OC)c4O)C(=O)OC3[C@@H](O)[C@@H]2O)cc1 (stereo not given in full) [11-O-p-methoxybenzoylbergenin (4)] | 144 |
| O=C(O)c1ccccc1 [SAMPL4, O1] | > 300 |
| COc1c(O)cc2c(c1O)C1O[C@H](COC(=O)c3ccc(O)c(O)c3)[C@@H](O)[C@H](O)C1OC2=O (stereo not given in full) [11-O-protocatechuoylbergenin (5)] | 290 |
| COc1cc(C(=O)O)ccc1O [4-hydroxy-3-methoxybenzoic acid] | > 300 |
